In patent publication US20130253022A1 (FOX CHASE CHEMICAL DIVERSITY CENTER, INC., priority 2010, published 2013):

Key:
Hippocampal Cultures [1] = experiment: Neuroprotection from heavy metal toxicity, CFDA assay; type: cell-based, rat; settings: for EC50: Rattus norvegicus
Text: All compounds were screened with dissociated hippocampal cultures derived from embryonic day 18 rats as the primary test system. With this preparation, primary neurons were used to test for prevention of heavy metal toxicity by the disclosed compounds. In brief, hippocampal tissue was obtained commercially through Brain Bits (Springfield, Ill.) and cultures prepared as previously described (Brewer, G. J. Serum-free B27/neurobasal medium supports differentiated growth of neurons from the striatum, substantia nigra, septum, cerebral cortex, cerebellum and dentate gyms, J. Neurosci. Res., 1995, 42, 674-683). The hippocampal neurons were platted at low density (10,000 cell/well) in a 96-well format and maintained in serum-free medium consisting of Neurobasal Medium supplemented with B27 and GlutaMAX (Gibco). Pre-coated poly-L-lysine coated plates are used because of the preferential adherence and survival of hippocampal neurons on this matrix support. Heavy metal toxicity is associated with the occurrence of seizures ([…] et al. Zinc and copper: pharmacological probes and endogenous modulators of neuronal excitability. Pharmacol. Ther. 2006, 111, 567-583). Therefore, the heavy metal toxicity studies serve as another example of the oxidative stress that the disclosed compounds have a protection action against. To establish the dose-dependency of test agents, day 18 hippocampal cultures were utilized to study the toxicity produced after treatment with the heavy metals and neuroprotection after treatment with test compounds. Serving as examples of heavy metal salts for these studies are the following: […] Prior to treatment, the B27/Neural Basal media of the cultures were replaced with B27 neural basal medium without antioxidants for 18 hours. […] Further, the removal of antioxidants in the medium was performed to obtain a significant and reproducible toxic signal for heavy metal treatment of the hippocampal neurons. Toxicity produced by heavy metals is measured by decreases in neuronal viability. Carboxyfluorescein (CFDA) was used a vital stain for all cell toxicity and neuroprotection studies. With the use of the CytoFluor fluorimeter, the CFDA assay was employed to assess the viability of neurons. CFDA is a dye that becomes fluorescent upon cell entry and cleavage by cytosolic esterases (Petroski and Geller. Selective labeling of embryonic neurons cultures on astrocyte monolayers with 5(6)-carboxyfluorescein diacetate [CFDA]. J. Neurosci. Methods 1994, 52, 23-32). Neuronal specificity is obtained relative to astrocytes because the cleaved dye is extruded extracellularlly by glia with time, while dye in neurons remains intracellular. Dose responses to the various heavy metal salts determined the minimal concentration that produced the maximum amount of toxicity. […] All test compounds are dissolved to 10 mM in Dulbecco's phosphate buffered saline (DPBS; Sigma: D-5780) prior to testing. To test for neuroprotection from a heavy metal toxicity, day 11 hippocampal cultures are given a complete change of medium containing 100 μl of Neurobasal medium with B27 that contain no antioxidants. Twenty-four hours after the change in medium, the heavy metal neuroprotection studies are started. […] At the conclusion of the 4 hour incubation period, the dye is removed from the cultures and washed once with 100 μl of DPBS. After removal of the first wash, a second wash of DPBS is added to the culture and then incubated for 30 min to allow the efflux of dye out of glia in the cultures. At the conclusion of the 30 min efflux period, the culture efflux medium is removed and 100 μl of 0.1% triton-X100 in water is added to the cultures before reading at Ex490/Em517 in a CytoFluor fluorimeter. Results are expressed in relative fluorescent units (RFU) and EC50's calculated from the dose response of the test compound.

Hippocampal Cultures [2] = experiment: Neuroprotection from heavy metal toxicity, propidium iodide assay; type: cell-based; settings: Rattus norvegicus, read-out: Neuroprotection EC50 PI
Text: All compounds were screened with dissociated hippocampal cultures derived from embryonic day 18 rats as the primary test system. With this preparation, primary neurons were used to test for prevention of heavy metal toxicity by the disclosed compounds. In brief, hippocampal tissue was obtained commercially through Brain Bits (Springfield, Ill.) and cultures prepared as previously described (Brewer, G. J. Serum-free B27/neurobasal medium supports differentiated growth of neurons from the striatum, substantia nigra, septum, cerebral cortex, cerebellum and dentate gyms, J. Neurosci. Res., 1995, 42, 674-683). The hippocampal neurons were platted at low density (10,000 cell/well) in a 96-well format and maintained in serum-free medium consisting of Neurobasal Medium supplemented with B27 and GlutaMAX (Gibco). Pre-coated poly-L-lysine coated plates are used because of the preferential adherence and survival of hippocampal neurons on this matrix support. Heavy metal toxicity is associated with the occurrence of seizures ([…] et al. Zinc and copper: pharmacological probes and endogenous modulators of neuronal excitability. Pharmacol. Ther. 2006, 111, 567-583). Therefore, the heavy metal toxicity studies serve as another example of the oxidative stress that the disclosed compounds have a protection action against. To establish the dose-dependency of test agents, day 18 hippocampal cultures were utilized to study the toxicity produced after treatment with the heavy metals and neuroprotection after treatment with test compounds. Serving as examples of heavy metal salts for these studies are the following: […] Prior to treatment, the B27/Neural Basal media of the cultures were replaced with B27 neural basal medium without antioxidants for 18 hours. […] Further, the removal of antioxidants in the medium was performed to obtain a significant and reproducible toxic signal for heavy metal treatment of the hippocampal neurons. At the conclusion of the 4 hour test period, the cultures are also tested for the amount of cell death as measured by the propidium iodide method. […] After removal of the growth medium, 50 μl of the 50 μM PI solution is added to cultures and allowed to incubate in the dark at room temperature for 15 min. The cultures are then assessed for fluorescence intensity at Ex536/Em590 nm in a CytoFluor fluorimeter. Results are expressed in relative fluorescent units. […] The test compound is added to the hippocampal cultures at concentrations that range from […] to […]. The incubation period is for four hours followed by the measurement of fluorescence at Ex536/Em590 nm in a CytoFluor fluorimeter. Results are expressed in relative fluorescent units. Background fluorescence was subtracted from values obtained from wells without cells.

[3] = Cobalt Chloride hexahydrate 10 μM
[4] = Copper Acetate monohydrate 10 μM
[5] = Nickel Chloride hexahydrate 10 μM

SMILES: NS(=O)(=O)NCC(F)(F)c1ccccc1F [Example 1, 2,2-Difluoro-2-(2-fluorophenyl)-ethyl-1-sulfamide]
- EC50 (Hippocampal Cultures [1]; [3]): 100 nM
- EC50 (Hippocampal Cultures [1]; [4]): 0.1 nM
- EC50 (Hippocampal Cultures [1]; Iron sulfate hexahydrate 10 μM): 1 nM
- EC50 (Hippocampal Cultures [1]; [5]): 10 nM
- EC50 (Hippocampal Cultures [1]; Zinc Acetate dehydrate 1 μM): 0.1 nM
- Prevention of toxicity of 5 heavy metals (Hippocampal Cultures [1]; five heavy metal salts at the Table 3 concentrations, CFDA and PI assays): prevented the toxicity of 5 heavy metals
- EC50 (Hippocampal Cultures [2]; [3]): 0.1 nM
- EC50 (Hippocampal Cultures [2]; [4]): 0.1 nM
- EC50 (Hippocampal Cultures [2]; Iron sulfate hexahydrate 10 μM): 0.01 nM
- EC50 (Hippocampal Cultures [2]; [5]): 0.1 nM
- EC50 (Hippocampal Cultures [2]; Zinc Acetate dehydrate 1 μM): 0.01 nM
